Each compound was assayed on Radical scavenging activity (assay: Antioxidant activity assessed as DPPH free radical scavenging activity).
Assay type: functional
In the case of `COc1cc([C@H]2Oc3c(OC)cc4ccc(=O)oc4c3O[C@@H]2CO)ccc1O` [CLEOMISCOSIN A], the IC50 is reported as 612 µM.
With `COc1cc([C@H]2Oc3c(OC)cc4ccc(=O)oc4c3O[C@@H]2COC(C)=O)ccc1O` [DURANTIN A] the IC50 was 625 µM.
For `COc1cc([C@H]2Oc3c(OC)cc4ccc(=O)oc4c3O[C@@H]2COC(=O)/C=C/c2ccc(O)cc2)ccc1O` [REPENIN A], the IC50 was 530 µM.
`COc1cc([C@H]2Oc3c(OC)cc4ccc(=O)oc4c3O[C@@H]2COC(=O)c2ccc(O)c(O)c2)cc(OC)c1O` [REPENIN D] showed an IC50 of 510 µM.
`COc1cc(/C=C/C(=O)OC[C@H]2Oc3c(c(OC)cc4ccc(=O)oc34)O[C@@H]2c2ccc(O)c(OC)c2)ccc1O` [REPENIN B] showed an IC50 of 420 µM.
Compound `COc1cc([C@H]2Oc3c(OC)cc4ccc(=O)oc4c3O[C@@H]2COC(=O)/C=C/c2ccc(O)c(O)c2)ccc1O` [REPENIN C] has an IC50 of 450 µM.
`COc1ccc(O)c(C(C)(C)C)c1.COc1ccc(O)cc1C(C)(C)C` [BUTYLATED HYDROXYANISOLE] was tested, and the IC50 was 43 µM.
